The numbers were not newly measured in patent US20170128362A1, “APPLICATION OF LARGE-DOSE GLYCERINUM IN FREEZE-THAWING TOLERABLE LIPID EMULSION” (Shengyang Pharmaceutical University, priority 2014, published 2017), which cites them from elsewhere.

Each structure is given as a SMILES string.

For the data set the following is noted: 0.005% sodium oleate.

In the case of `CCCCCCCC/C=C\CCCCCCCC(=O)[O-].[Na+]` [sodium oleate], the hemolysis is 100%.
